Assay results from patent US11999676B2, “Vesicular monoamine transporter-2 ligands and their use in the treatment of psychostimulant abuse” (priority 2016, dated 2024).

Tests used:
hERG channel = hERG channel (Homo sapiens (Human), UniProt Q12809); experiment: [3H]Dofetilide binding assay, HEK-293 cell membrane preparation; conditions: [3H]dofetilide, HEK-293 cell membranes; read-out: hERG Binding: Mean Ki ± Standard Deviation
Experimental: [^3H]Dofetilide binding assays were conducted using commercially available HEK-293 cell membranes which stably express the hERG channel. Membranes were suspended in assay buffer (50 mM Tris, 10 mM KCl, 1 mM MgCl2, pH 7.4) prior to the experiment. […] Aliquots of the HEK-293 cell membrane suspension which contained 5 μg membrane protein were added to tubes containing assay buffer, 5 nM [^3H]dofetilide and a range of concentrations of analog (10 nM-100 μM). Nonspecific binding was determined in the presence of amitriptyline (1 mM). Samples were incubated for 1 hr. at 24° C., followed by rapid filtration. […] The affinity for the [^3H]dofetilide binding site on the hERG channel expressed in the HEK-293 cellular membrane was determined from the analog concentration response curves.

VMAT2 = VMAT2 (Rattus norvegicus (Rat), UniProt Q01827); experiment: [3H]Dopamine ([3H]DA) uptake assay, vesicular preparation; assay type: biochemical; conditions: [3H]DA uptake, rat; read-out: VMAT2 (rat) Inhibition: Mean Ki ± Standard Deviation
[1] = Microsomal stability assay, rat liver microsomes; conditions: for CLint scaled at 0.08 µM / half-life at 0.08 µM: female, Sprague-Dawley, rat, liver microsomes; for CLint scaled at 0.08 µM: pH 7.4, Microsomal stability assays: Clearance; for half-life at 0.08 µM: pH 7.4, Microsomal stability assays: Half-life
Experimental: (§1) Each plate holds triplicate samples of two controls (0.4 mM) and up to 14 compounds (0.08 mM) in rat and human liver microsomes. Aliquots of each well of the plate (175 μl of each well) were transferred from the master plate into 5 assay plates. For 0-hr time point, pre-cooled (4° C.) internal standard (437.5 μL, 2 μM caffeine in methanol) was added to the first plate before the reaction starts. NADPH regenerating system solution A (6.05 ml, Fisher Scientific, #NC9255727) was combined with NADPH regenerating system solution B (1.21 ml, Fisher Scientific, #NC9016235) in potassium phosphate buffer (15.8 ml, 0.1 M, pH 7.4, 37° C.). The resulting NADPH solution (43.8 μl) was added to each well of all the 96-well assay plates and mixed with pipette briefly making the final protein and compound concentrations respectively: 0.5 mg/ml, 0.08 μM (0.4 μM for controls). Plates were sealed, and all plates except the 0-hr plate were incubated at 37° C., shaken at a speed of 60 rpm. A single assay plate was tested at each time point: 0.5 hr, 1 hr, 2 hr, and 4 hr. At each time point, 437.5 μL of pre-cooled internal standard was added each well of the plate to quench the reaction. […] 120 μl supernatant was transferred to a 96-well plate, centrifuged again and analyzed by UPLC-MS (Waters Inc., Milford, MA). The compounds and internal standard were detected by selected ion recording (SIR).
(§2) The amount of material was measured as a ratio of peak area to the internal standard and graphed. Using the slope from the initial linear portion of this curve, the degradation rate constant is calculated using equation [1].

[2] = Microsomal stability assay, human liver microsomes; conditions: for CLint scaled at 0.08 µM: pH 7.4, Microsomal stability assays: Clearance
Experimental: as §1, §2

[3] = both, human, pooled liver microsomes

Chain of hERG channel (Q12809 whole entry): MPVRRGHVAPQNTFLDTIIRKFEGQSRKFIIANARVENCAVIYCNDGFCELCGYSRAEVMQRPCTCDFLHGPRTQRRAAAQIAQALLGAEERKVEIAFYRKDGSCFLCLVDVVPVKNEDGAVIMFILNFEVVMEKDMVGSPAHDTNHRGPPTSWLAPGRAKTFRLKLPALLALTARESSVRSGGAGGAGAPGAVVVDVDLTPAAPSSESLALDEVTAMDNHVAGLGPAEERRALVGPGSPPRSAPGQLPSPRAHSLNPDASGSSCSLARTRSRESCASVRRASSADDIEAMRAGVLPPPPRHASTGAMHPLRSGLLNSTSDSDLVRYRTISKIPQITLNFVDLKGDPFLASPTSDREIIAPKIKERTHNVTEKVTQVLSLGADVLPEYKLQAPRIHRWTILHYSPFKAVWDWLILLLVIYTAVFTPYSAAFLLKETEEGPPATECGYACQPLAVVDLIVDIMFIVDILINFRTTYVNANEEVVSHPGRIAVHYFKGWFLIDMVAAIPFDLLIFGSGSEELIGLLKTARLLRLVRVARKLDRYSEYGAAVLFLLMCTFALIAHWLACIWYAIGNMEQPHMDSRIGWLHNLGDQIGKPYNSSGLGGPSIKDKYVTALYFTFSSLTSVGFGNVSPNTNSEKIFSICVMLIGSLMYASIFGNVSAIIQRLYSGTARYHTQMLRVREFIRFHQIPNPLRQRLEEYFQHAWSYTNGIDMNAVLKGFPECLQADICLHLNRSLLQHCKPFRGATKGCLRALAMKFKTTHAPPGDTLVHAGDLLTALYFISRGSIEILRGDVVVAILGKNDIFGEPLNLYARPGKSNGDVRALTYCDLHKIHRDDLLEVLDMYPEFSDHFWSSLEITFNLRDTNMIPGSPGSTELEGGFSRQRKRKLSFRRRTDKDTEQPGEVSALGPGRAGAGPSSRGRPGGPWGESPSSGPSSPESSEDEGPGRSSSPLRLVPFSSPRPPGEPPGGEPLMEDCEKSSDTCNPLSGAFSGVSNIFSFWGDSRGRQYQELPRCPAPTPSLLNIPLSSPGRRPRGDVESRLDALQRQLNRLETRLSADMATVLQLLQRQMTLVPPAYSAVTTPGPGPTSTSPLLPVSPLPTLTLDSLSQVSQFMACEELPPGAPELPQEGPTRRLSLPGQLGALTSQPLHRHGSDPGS

Compound | Ki (hERG channel) [nM] | Ki (VMAT2) [nM] | CLint scaled at 0.08 µM [1] [mL/min/kg] | half-life at 0.08 µM [1] [min] | Microsomal stability assays: Half-life [1] [min] | Microsomal stability assays: Clearance [1] [mL/min/kg] | CLint scaled at 0.08 µM [2, 3] [mL/min/kg] | half-life at 0.08 µM ([2]; both, human, pooled liver microsomes, pH 7.4, Microsomal stability assays: Half-life) [min] | Microsomal stability assays: Half-life [2] [min]
CC(Cc1ccc(C(F)(F)F)cc1)NCCCc1ccc(N)cc1 (stereo not shown) [Compound 54] | 908 ± 102 | 61.8 ± 1.69 |  |  |  |  |  |  | 
CC(Cc1ccc(F)cc1)NCCCc1ccc2[nH]ccc2c1 (stereo not shown) [Compound 55] | 1550 ± 630 | 27.4 ± 8.93 | > 400 | < 6 |  |  |  |  | 
COc1ccc(CC(C)NCCCc2ccc(N)cc2)cc1 (stereo not shown) [Compound 57] | 4250 ± 220 | 68.9 ± 13.3 |  |  |  |  |  |  | 
COc1ccc(CC(C)NCCCc2ccc([N+](=O)[O-])cc2)cc1 (stereo not shown) [Compound 58] | 42.3 ± 8.21 | 16.6 ± 3.99 |  |  |  |  |  |  | 
CC(Cc1ccc(F)c(F)c1)NCCCc1ccc([N+](=O)[O-])cc1 (stereo not shown) [Compound 59] | 55.6 ± 7.7 | 13.1 ± 2.87 |  |  |  |  |  |  | 
CC(Cc1ccc(F)c(F)c1)NCCCc1ccc(N)cc1 (stereo not shown) [Compound 60] | 3140 ± 1550 | 48.3 ± 16.4 | 30.7 | 60 |  |  |  |  | 
CC(Cc1ccc(Cl)cc1)NCCCc1ccc(N)cc1 (stereo not shown) [Compound 62] | 2380 ± 1120 | 31.6 ± 4.66 | 83 | 36 |  |  |  |  | 
CC(Cc1ccc(Cl)cc1)NCCCc1ccc([N+](=O)[O-])cc1 (stereo not shown) [Compound 64] | 28.8 ± 13.7 | 16.4 ± 1.47 |  |  |  |  |  |  | 
CC(=O)Nc1ccc(CCCNC(C)Cc2ccc(F)cc2)cc1 (stereo not shown) [Compound 66] | 10100 ± 3350 | 32.5 ± 3.52 | 30.7 | 90 |  |  |  |  | 
CC(Cc1ccc(NC=O)cc1)N(C=O)CCCc1ccc(F)cc1 (stereo not shown) [Compound 74] | 831 ± 187 | 8.82 ± 2.05 |  |  |  |  |  |  | 
FCC(Cc1ccc(Br)cc1)NCCCc1ccc(F)cc1 (stereo not shown) [Compound 85] | 1130 ± 711 | 35.7 ± 7.32 | 335 |  | 6 |  |  |  | 
CC(Cc1ccc(NC=O)cc1)NCCCc1ccc(F)cc1 (stereo not shown) [Compound 87] | 738 ± 244 | 12.7 ± 2.85 | 13.3 | 210 |  |  |  |  | 
CC(Cc1ccc(NC=O)cc1)NCCCc1ccc(F)cc1 (stereo not shown) [Compound 90] | 738 ± 244 | 12.7 ± 2.85 |  |  | 114 | 24.9 |  |  | 
CC(Cc1ccc(F)cc1)NCCCc1c[nH]c2ccccc12 (stereo not shown) [Compound 91] | 2200 ± 124 | 36.5 ± 5.56 | > 400 | < 6 |  |  |  |  | 
CC(Cc1ccc(F)cc1)NCCCc1ccc(N)cc1 (stereo not shown) [Compound 94] | 3980 ± 3410 | 84.6 ± 29.1 | 119 | 24 |  |  |  |  | 
CC(Cc1ccc(F)c(F)c1)NCCCc1ccncc1 (stereo not shown) [Compound 96] | 4070 ± 734 | 78.5 ± 15.8 | 96.8 | 30 |  |  |  |  | 
FCC(Cc1ccccc1)NCCCc1ccccc1 (stereo not shown) [Compound 98] | 17100 ± 12100 | 27.8 ± 5.29 | > 400 | < 6 |  |  |  |  | 
FCC(Cc1ccc(F)cc1)NCCCc1ccccc1 (stereo not shown) [Compound 100] | 7390 ± 1360 | 51.2 ± 12 |  |  |  |  |  |  | 
FCC(Cc1ccccc1)NCCCc1ccc(F)cc1 (stereo not shown) [Compound 101] | 4800 ± 940 | 14.7 ± 9.28 | 253 | 12 |  |  |  |  | 
CC(Cc1ccc(N)cc1)NCCCc1ccc(F)cc1 (stereo not shown) [Compound 110] | 2590 ± 792 | 19.2 ± 4.43 | < 10 | > 240 |  |  |  |  | 
CC(Cc1ccc(N)cc1)NCCCc1ccc(F)cc1 (stereo not shown) [Compound 111] | 2500 ± 435 | 16.7 ± 3.34 |  |  | 144 | 19.5 |  |  | 
CC(Cc1ccc([N+](=O)[O-])cc1)NCCCc1ccc(F)cc1 (stereo not shown) [Compound 117] | 206 ± 137 | 7.08 ± 1.29 | 148 | 18 |  |  |  |  | 

Compound | Ki (hERG channel) [nM] | Ki (VMAT2) [nM] | CLint scaled at 0.08 µM [1] [mL/min/kg] | half-life at 0.08 µM [1] [min] | Microsomal stability assays: Half-life [1] [min] | Microsomal stability assays: Clearance [1] [mL/min/kg] | CLint scaled at 0.08 µM [2, 3] [mL/min/kg] | half-life at 0.08 µM ([2]; both, human, pooled liver microsomes, pH 7.4, Microsomal stability assays: Half-life) [min] | Microsomal stability assays: Half-life [2] [min]
CC(Cc1ccc([N+](=O)[O-])cc1)NCCCc1ccc(F)cc1 (stereo not shown) [Compound 119] | 130 ± 25.6 | 9.85 ± 1.62 |  |  | 24 | 112 |  |  | 
CC(Cc1ccc([N+](=O)[O-])cc1)NCCCc1ccc(Cl)cc1 (stereo not shown) [Compound 125] | 82 ± 12.7 | 8.58 ± 3.71 |  |  |  |  |  |  | 
CC(Cc1ccc(F)cc1)NCCCc1ccc(Br)cc1 (stereo not shown) [Compound 145] | 506 ± 199 | 22.1 ± 6.5 | 402 |  | 6 |  |  |  | 
OCC(Cc1ccc(F)cc1)NCCCc1ccc(F)cc1 (stereo not shown) [Compound 147] | 1150 ± 417 | 30.1 ± 14.2 |  |  |  |  |  |  | 
FCC(Cc1ccc(F)cc1)NCCCc1ccc(Cl)cc1 (stereo not shown) [Compound 150] | 2340 ± 1070 | 39.1 ± 7.97 | 540 |  | 6 |  |  |  | 
FCC(Cc1ccc(F)cc1)NCCCc1ccc(F)cc1 (stereo not shown) [Compound 152] | 5700 ± 2970 | 27.3 ± 12.8 | 298 | 12 |  |  |  |  | 
CCOC(=O)c1ccc(CCCNC(C)Cc2ccc(F)cc2)cc1 (stereo not shown) [Compound 158] | 1410 ± 275 | 42.8 ± 8.89 | 120 | 24 |  |  |  |  | 
CC(Cc1ccc(F)cc1)NCCCc1ccc([N+](=O)[O-])cc1 (stereo not shown) [Compound 160] | 67.1 ± 14.7 | 14.3 ± 2.2 | 119 | 24 |  |  |  |  | 
CC(Cc1ccc(C(F)(F)F)cc1)NCCCc1ccncc1 (stereo not shown) [Compound 164] | 1890 ± 639 | 53.3 ± 6.5 | 83.3 | 36 |  |  |  |  | 
CC(Cc1ccc(-c2cncnc2)cc1)NCCCc1ccc(Cl)cc1 (stereo not shown) [Compound 170] | 199 ± 64.9 | 6.74 ± 2.59 | 34.2 | 84 |  |  |  |  | 
COc1ccc(CCCNC(C)Cc2ccncc2)cc1 (stereo not shown) [Compound 172] |  | 186 ± 127 |  |  |  |  | 42.9 | 30 | 
CC(Cc1ccc(Br)cc1)NCCCc1ccncc1 (stereo not shown) [Compound 174] | 880 ± 251 | 52.1 ± 35.9 | 126 | 24 |  |  |  |  | 
CC(Cc1ccc(F)cc1)NCCCc1ccncc1 (stereo not shown) [Compound 176] | 3770 ± 2.04 | 80.7 ± 21 | 71.8 | 42 |  |  |  |  | 
CC(Cc1ccncc1)NCCCc1ccc(O)cc1 (stereo not shown) [Compound 178] | 5070 ± 71.4 | 124 ± 29.4 | 89.3 | 30 |  |  |  |  | 
CC(Cc1ccc(Br)cc1)NCCCc1ccc(I)cc1 (stereo not shown) [Compound 180] | 601 ± 195 | 48.4 ± 19.4 | 290 | 12 |  |  |  |  | 
CC(Cc1ccc(F)cc1)NCCCc1ccc(I)cc1 (stereo not shown) [Compound 182] | 512 ± 126 | 52.7 ± 6.35 | 375 |  | 6 |  |  |  | 
CC(Cc1ccc(Br)cc1)NCCCc1ccc(Cl)cc1 (stereo not shown) [Compound 184] | 196 ± 30.5 | 9.06 ± 1.61 | 452 |  | 6 |  |  |  | 
CC(Cc1ccc(-c2cccnc2)cc1)NCCCc1ccc(F)cc1 (stereo not shown) [Compound 192] | 675 ± 127 | 11.9 ± 9.94 | 77.2 | 36 |  |  |  |  | 
CC(Cc1ccccc1)NCCCc1ccc(-c2cncnc2)cc1 (stereo not shown) [Compound 202] |  | 119 ± 31.8 |  |  |  |  | 155 |  | 6
CC(Cc1ccc(C(F)(F)F)cc1)NCCCc1ccc(O)cc1 (stereo not shown) [Compound 209] | 252 ± 109 | 17.1 ± 6.86 |  |  |  |  |  |  | 
CC(Cc1ccccc1)NCCCc1ccc(O)cc1 (stereo not shown) [Compound 223] | 2750 ± 1080 | 5.01 ± 1.72 |  |  |  |  |  |  | 
